Tested on: MDA-MB-436 breast cancer cell line
Assay: Cell viability assay (MDA-MB-436)
Format: cell-based
Details: Homo sapiens, 144 h; MDA-MB-436 cells, treated 6 days
Protocol: 2. Cell Viability Assay (MDA-MB-436)
Cell viability assay was performed by using MDA-MB-436 cell line to measure cytotoxicity of compounds in the present invention. MDA-MB-436 breast cancer cell line was seeded into 96-well plates at 37° C. under 5% CO2 atmosphere using DMEM/F12 (Gibco) containing 10% FBS (Hyclone). After 24 hr incubation, cells were treated with the invented compounds at various concentrations for 6 days. The medium was changed every 3 day. 6 days later, A fluorescence reagent was used to determine the IC50 values.

Row | Compound | IC50
1 | CN(C1CCC1)C1CN(C(=O)c2cc(Cc3n[nH]c(=O)c4ccccc34)ccc2F)C1 [Compound I-71, 4-(3-(3-(cyclobutyl(methyl)amino)azetidine-1-carbonyl)-4-fluorobenzyl)phthalazin-1(2H)-one] | 50 to 300 nM
2 | O=C(c1cc(Cc2n[nH]c(=O)c3ccccc23)ccc1F)N1CC(N2CCC(F)(F)C2)C1 [Compound I-73, 4-(3-(3-(3,3-difluoropyrrolidin-1-yl)azetidine-1-carbonyl)-4-fluorobenzyl)phthalazin-1(2H)-one] | 50 to 300 nM
3 | O=C(c1cc(Cc2n[nH]c(=O)c3ccccc23)ccc1F)N1CC(N2CCC(F)CC2)C1 [Compound I-74, 4-(4-fluoro-3-(3-(4-fluoropiperidin-1-yl)azetidine-1-carbonyl)benzyl)phthalazin-1(2H)-one] | 5 to 50 nM
4 | O=C(c1cc(Cc2n[nH]c(=O)c3ccccc23)ccc1F)N1CC(N2CCCC2)C1 [Compound I-76, 4-(4-fluoro-3-(3-(pyrrolidin-1-yl)azetidine-1-carbonyl)benzyl)phthalazin-1(2H)-one] | 5 to 50 nM
5 | O=C(c1cc(Cc2n[nH]c(=O)c3ccccc23)ccc1F)N1CC(N2CCCCC2)C1 [Compound I-77, 4-(4-fluoro-3-(3-(piperidin-1-yl)azetidine-1-carbonyl)benzyl)phthalazin-1(2H)-one] | 50 to 300 nM
6 | CN1CCN(C2CN(C(=O)c3cc(Cc4n[nH]c(=O)c5ccccc45)ccc3F)C2)CC1 [Compound I-78, 4-(4-fluoro-3-(3-(4-methylpiperazin-1-yl)azetidine-1-carbonyl)benzyl)phthalazin-1(2H)-one] | 300 to 1000 nM
7 | O=C(c1cc(Cc2n[nH]c(=O)c3ccccc23)ccc1F)N1CC(Nc2ccccc2)C1 [Compound I-79, 4-(4-fluoro-3-(3-(phenylamino)azetidine-1-carbonyl)benzyl)phthalazin-1(2H)-one] | 50 to 300 nM
8 | C#CCNC1CN(C(=O)c2cc(Cc3n[nH]c(=O)c4ccccc34)ccc2F)C1 [Compound I-81, 4-(4-fluoro-3-(3-(prop-2-yn-1-ylamino)azetidine-1-carbonyl)benzyl)phthalazin-1(2H)-one] | 50 to 300 nM
9 | O=C(c1cc(Cc2n[nH]c(=O)c3ccccc23)ccc1F)N1CC(NC2(CO)CC2)C1 [Compound I-84, 4-(4-fluoro-3-(3-((1-(hydroxymethyl)cyclopropyl)amino)azetidine-1-carbonyl)benzyl)phthalazin-1(2H)-one] | 50 to 300 nM
10 | CC1(NC2CN(C(=O)c3cc(Cc4n[nH]c(=O)c5ccccc45)ccc3F)C2)CC1 [Compound I-85, 4-(4-fluoro-3-(3-((1-methylcyclopropyl)amino)azetidine-1-carbonyl)benzyl)phthalazin-1(2H)-one] | ≤ 5 nM
11 | C[C@@H](NC1CN(C(=O)c2cc(Cc3n[nH]c(=O)c4ccccc34)ccc2F)C1)C(C)(C)C [Compound I-86, (R)-4-(3-(3-((3,3-dimethylbutan-2-yl)amino)azetidine-1-carbonyl)-4-fluorobenzyl)phthalazin-1(2H)-one] | 5 to 50 nM
12 | C[C@H](NC1CN(C(=O)c2cc(Cc3n[nH]c(=O)c4ccccc34)ccc2F)C1)C(C)(C)C [Compound I-87, (S)-4-(3-(3-((3,3-dimethylbutan-2-yl)amino)azetidine-1-carbonyl)-4-fluorobenzyl)phthalazin-1(2H)-one] | 300 to 1000 nM
13 | CC(C)[C@@H](C)NC1CN(C(=O)c2cc(Cc3n[nH]c(=O)c4ccccc34)ccc2F)C1 [Compound I-88, (R)-4-(4-fluoro-3-(3-((3-methylbutan-2-yl)amino)azetidine-1-carbonyl)benzyl)phthalazin-1(2H)-one] | ≤ 5 nM
14 | CC(C)[C@H](C)NC1CN(C(=O)c2cc(Cc3n[nH]c(=O)c4ccccc34)ccc2F)C1 [Compound I-89, (S)-4-(4-fluoro-3-(3-((3-methylbutan-2-yl)amino)azetidine-1-carbonyl)benzyl)phthalazin-1(2H)-one] | 5 to 50 nM

— US9844550B2, “Phtalazinone derivatives and manufacturing process thereof” (ILDONG PHARM CO., LTD., priority 2013, dated 2017)
